This note sets out measurements from ChEMBL document CHEMBL1201862, “PubChem BioAssay data set” (2004).

Among the test systems are CCRF-CEM; COLO 205; DU-145; HOP-92; K562; MDA-MB-231; MOLT-4; NCI-H226; NCI-H23; OVCAR-3; OVCAR-4; RPMI-8226; SF-268; SK-MEL-28; SK-MEL-2; SN12C; SW-620; TK-10; UO-31; SK-OV-3.
Test in all cases: NCI anticancer screen, dose series, 48 h

Structures are written as SMILES.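 Method: 48-hour compound exposure of cells in 96-well plates, five concentrations, linear interpolation of endpoints. At the GI50, growth is halved.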 Active and inactive are the calls of the source. No stated cut-off is given here; in the data, active = GI50 up to about 1.1 µM and inactive = higher. Where only a bound is given, the exact number is not on record here.

For `CN(C)c1cccc(NC2=NCCO2)c1`, the GI50 is 33 µM (inactive) with CCRF-CEM; 20.6 µM (inactive) in the assay with COLO 205; > 100 µM (inactive) in the assay with DU-145; 12.2 µM (inactive) in the assay with HOP-92; 30.8 µM (inactive) with K562; 51.4 µM (inactive) with MDA-MB-231. The GI50 was 46.7 µM (inactive) with MOLT-4; 47.2 µM (inactive) in the assay on NCI-H226; 23.6 µM (inactive) in the assay on NCI-H23; 59.4 µM (inactive) in the assay on OVCAR-3; > 100 µM (inactive) with OVCAR-4; 65.5 µM (inactive) in the assay with RPMI-8226. The GI50 in the assay with SF-268 was 92 µM (inactive); with SK-MEL-28 it was 42.8 µM (inactive); with SK-MEL-2, 14.9 µM (inactive); in the assay with SN12C, 52.5 µM (inactive); in the assay on SW-620, 57.7 µM (inactive); with TK-10 it was > 100 µM (inactive). In addition, the GI50 with UO-31 is > 100 µM (inactive).

As for `CC1(C)CC(=O)c2c(nc3ccc4ccccc4c3c2-c2ccc(NC(=O)CCCCCCCCC(=O)Nc3ccc(-c4c5c(nc6ccc7ccccc7c46)CC(C)(C)CC5=O)cc3)cc2)C1`, the GI50 in the assay with CCRF-CEM, with COLO 205, with DU-145, in the assay with HOP-92, in the assay with K562 and with MDA-MB-231 was > 100 µM (inactive) in each case. The GI50 in the assay on MOLT-4, in the assay with NCI-H226, with NCI-H23, with OVCAR-3, in the assay on RPMI-8226 and with SF-268 was > 100 µM (inactive) in each case. In addition, the GI50 in the assay with SK-MEL-28, in the assay with SK-MEL-2, with SK-OV-3, with SN12C, in the assay with SW-620 and in the assay with TK-10 was > 100 µM (inactive) throughout. Also, in the assay with UO-31, the GI50 was > 100 µM (inactive).

`Clc1ccc(Cl)c(SCCCN2CCNCC2)c1`: the GI50 was 19.9 µM (inactive) in the assay on CCRF-CEM; 16.2 µM (inactive) in the assay with COLO 205; 15.8 µM (inactive) in the assay with DU-145; 15 µM (inactive) with HOP-92; 14.6 µM (inactive) in the assay with K562; 15 µM (inactive) with MDA-MB-231. Besides, the GI50 in the assay with MOLT-4 is 17.1 µM (inactive); with NCI-H226, 18.3 µM (inactive); in the assay on NCI-H23 it was 19.4 µM (inactive); with OVCAR-3 it was 19.2 µM (inactive); in the assay on OVCAR-4, 20.6 µM (inactive); with RPMI-8226, 19.8 µM (inactive). In addition, the GI50 in the assay on SF-268 is 16.6 µM (inactive); in the assay with SK-MEL-28 it was 10.4 µM (inactive); in the assay on SK-OV-3 it was 15.1 µM (inactive); with SN12C, 19.2 µM (inactive); with SW-620 it was 22.3 µM (inactive); with TK-10 it was 16.5 µM (inactive). Also, the GI50 in the assay with UO-31 is 14.4 µM (inactive).

On to `O=S(=O)(c1ccccc1)C1(CCC2OCCO2)C=CC2(CC1)OCCO2` (stereo not given), for which the GI50 with CCRF-CEM, in the assay with COLO 205, with DU-145, in the assay on HOP-92, in the assay on K562 and in the assay on MDA-MB-231 was > 100 µM (inactive) throughout. The GI50 with MOLT-4, in the assay on NCI-H226, with NCI-H23, in the assay on OVCAR-3, in the assay with OVCAR-4 and with RPMI-8226 was > 100 µM (inactive) in each case. The GI50 with SF-268, in the assay on SK-MEL-28, in the assay on SK-OV-3, with SN12C, in the assay with SW-620 and with TK-10 was > 100 µM (inactive) in each case. Also, the GI50 with UO-31 was > 100 µM (inactive).

Take `C/C(=C/CC[C@]1(CO)CC[C@]2(CO)[C@H](CC[C@@H]3[C@@]4(C)CC[C@H](OC5OCC(O)C(O)C5OC5OC(CO)C(O)C(O)C5O)C(C)(C)[C@@H]4CC[C@]32C)[C@H]1O)CO` (stereo not given in full): the GI50 in the assay on CCRF-CEM, in the assay with COLO 205, in the assay with DU-145, with HOP-92, in the assay on K562 and in the assay with MDA-MB-231 was > 100 µM (inactive) in each case. Besides, the GI50 in the assay with MOLT-4, in the assay on NCI-H226, in the assay on NCI-H23, in the assay with OVCAR-3, with OVCAR-4 and in the assay with RPMI-8226 was > 100 µM (inactive) in each case. Further, the GI50 with SF-268, in the assay with SK-MEL-28, in the assay on SK-OV-3, in the assay on SN12C, in the assay with SW-620 and in the assay on TK-10 was > 100 µM (inactive) throughout. Besides, the GI50 with UO-31 is > 100 µM (inactive).

On to `COC(=O)[C@]1(C)CCC[C@@]2(C)C1CC[C@]13C=C(C(C)C)[C@H](CC21)CC3(Cl)C#N` (stereo not given in full), for which the GI50 in the assay on CCRF-CEM is 20.7 µM (inactive); with COLO 205, 41.6 µM (inactive); in the assay with DU-145 it was 43.5 µM (inactive); with HOP-92, > 100 µM (inactive); in the assay on K562, 19.5 µM (inactive); in the assay on MDA-MB-231, 42.2 µM (inactive). Besides, the GI50 in the assay on MOLT-4 is 20 µM (inactive); in the assay with NCI-H226, 22.8 µM (inactive); with NCI-H23, 59.8 µM (inactive); in the assay with OVCAR-3, 35 µM (inactive); in the assay on OVCAR-4 it was 54.6 µM (inactive); with SF-268, 46.3 µM (inactive). For the same compound, the GI50 in the assay on SK-MEL-28 was 36.1 µM (inactive); in the assay on SK-OV-3, > 100 µM (inactive); with SN12C, 51.1 µM (inactive); in the assay on SW-620, 37.6 µM (inactive); in the assay on TK-10, > 100 µM (inactive); in the assay on UO-31 it was 64.3 µM (inactive).

`CC(C)(C)C1CCC2c3c([nH]c4ccccc34)C3C(=O)N(c4ccc(C(=O)O)cc4)C(=O)C3C2C1` (stereo not given): the GI50 with CCRF-CEM was 3.69 µM (inactive); in the assay on COLO 205, 19 µM (inactive); in the assay with DU-145 it was 17.5 µM (inactive); with HOP-92, 11.2 µM (inactive); in the assay on K562, 4.43 µM (inactive); in the assay on MDA-MB-231 it was 15.5 µM (inactive). In addition, the GI50 in the assay with MOLT-4 was 0.1 µM (active); in the assay with NCI-H226, 20.9 µM (inactive); with NCI-H23, 17.7 µM (inactive); in the assay with OVCAR-3 it was 12.4 µM (inactive); with RPMI-8226, 20 µM (inactive); in the assay on SF-268 it was 14.2 µM (inactive). Further, the GI50 was 11.3 µM (inactive) with SK-MEL-28; 14.9 µM (inactive) in the assay on SK-MEL-2; 17.5 µM (inactive) in the assay with SK-OV-3; 12.8 µM (inactive) in the assay on SN12C; 13.6 µM (inactive) in the assay on SW-620; 17.5 µM (inactive) in the assay with TK-10. Further, the GI50 in the assay on UO-31 was 16.8 µM (inactive).

Regarding `Nc1ncc(C=O)c(NCC2(CO)CCC2)n1`, the GI50 in the assay with CCRF-CEM was 38.4 µM (inactive); with COLO 205, 28.4 µM (inactive); in the assay with DU-145, 33 µM (inactive); in the assay on HOP-92, 14.5 µM (inactive); in the assay on K562 it was 36.4 µM (inactive); in the assay on MDA-MB-231, 45.8 µM (inactive). Moreover, the GI50 in the assay with MOLT-4 was 30.5 µM (inactive); with NCI-H226, 27.7 µM (inactive); with NCI-H23 it was 33.5 µM (inactive); in the assay on OVCAR-3, 50.6 µM (inactive); with OVCAR-4, 48.9 µM (inactive); in the assay on RPMI-8226, 8.04 µM (inactive). Moreover, the GI50 in the assay with SF-268 was 87.9 µM (inactive); with SK-MEL-2, 19.3 µM (inactive); with SN12C it was > 100 µM (inactive); in the assay with SW-620, 89.9 µM (inactive); with TK-10, 15.4 µM (inactive); with UO-31, 27.5 µM (inactive).

Turning to `C[C@H]1CC[C@@H]2[C@@H](C)C[C@H]3[C@@H]4C(C)(C)OC(=O)[C@]4(C)C(=O)[C@@]23C1=O`, the GI50 is > 100 µM (inactive) with CCRF-CEM; > 100 µM (inactive) with COLO 205; > 100 µM (inactive) with DU-145; 85.5 µM (inactive) in the assay with HOP-92; > 100 µM (inactive) with K562; 42.5 µM (inactive) with MDA-MB-231. The GI50 in the assay with MOLT-4, with NCI-H226, in the assay with NCI-H23, in the assay with OVCAR-3, with OVCAR-4 and with RPMI-8226 was > 100 µM (inactive) throughout. Besides, the GI50 in the assay on SF-268, in the assay with SK-MEL-28, with SK-OV-3, in the assay with SN12C, with SW-620 and in the assay with TK-10 was > 100 µM (inactive) each time.

As for `O=C1CCCCN1C(=O)c1ccc([N+](=O)[O-])cc1`, the GI50 in the assay with CCRF-CEM, in the assay with DU-145, with HOP-92, with K562, in the assay with MDA-MB-231 and with MOLT-4 was > 100 µM (inactive) throughout. Moreover, the GI50 with NCI-H226, in the assay with NCI-H23, in the assay on OVCAR-3, with OVCAR-4, in the assay with RPMI-8226 and with SF-268 was > 100 µM (inactive) throughout. The GI50 is > 100 µM (inactive) in the assay on SK-MEL-28; 24 µM (inactive) with SN12C; > 100 µM (inactive) in the assay on SW-620; > 100 µM (inactive) in the assay on TK-10; > 100 µM (inactive) in the assay on UO-31.
